Source: PMC8348901, “Novel N-Substituted 3-Aryl-4-(diethoxyphosphoryl)azetidin-2-ones as Antibiotic Enhancers and Antiviral Agents in Search for a Successful Treatment of Complex Infections” (International Journal of Molecular Sciences, 2021)
pEC50, pIC50: −log10 of the molar value. Read-outs that look alike come from different tables or passages of the source.

Key:
[1] = tested on: influenza A virus H1N1 subtype; assay: Antiviral assay, influenza A virus H1N1 subtype in MDCK cells; type: cell-based, influenza A virus H1N1 (A/PR/8)
MRSA HEMSA 5 = assay: Oxacillin MIC reduction (adjuvant) microdilution assay; type: cell-based, Staphylococcus aureus; conditions: MIC(OXA)/MIC(OXA+Cpd), compound 0.5 mM, adjuvant activity if A ≥ 4
Experimental: (§1) Since the lack of direct antibacterial activity of the obtained azetidinones was observed, all isomers trans and cis were investigated on their “adjuvant” properties, i.e., an ability to enhance the effectiveness of antibiotics against S. aureus strains. Thus, the compounds were tested in combination with the known β-lactam antibiotic, oxacillin, in the microdilution assays. The ability of the tested azetidinones to reduce minimum inhibitory concentration (MIC) of oxacillin against both, the referenced and the resistant S. aureus strains, was assessed.
(§2) The in-vitro antibacterial property and the capacity of tested compounds to increase the efficacy of antibiotics were evaluated in two Staphylococcus aureus strains, i.e., the reference clonal complex 5 (CC5) methicillin-susceptible (MSSA) strain ATCC 25923, and the methicillin-resistant (MRSA) extensively drug-resistant (XDR) clinical isolate HEMSA-5 [46].
(§3) In order to assess the increase of antibiotic efficacy, the assays were conducted by determining if/to what extent the investigated compounds reduce MICs of oxacillin by means of a serial dilution broth microplate method, in accordance with the CLSI requirements. The concentrations of compounds used in the MICs reduction assay were no greater than 1/4 of their respective MICs to ensure that cell viability was not affected by the intrinsic antibacterial activity of the molecules. Serial two-fold dilutions of oxacillin (Sigma-Aldrich; St. Louis, MI, USA, cat. no. 28221), were prepared in […] of the Mueller–Hinton broth (Merck; Darmstadt, Germany, cat. no. 1102930500). Suitable concentrations of the compounds (total volume […]) were then added. Bacterial suspensions were diluted to OD ¼ 0.5. The resulting suspensions were then diluted 1:100 and added in the volume of […] into the oxacillin serial dilutions with the compounds. The results were read after 20-h incubation at 37 °C.
(§4) The ability of compounds to improve antibiotic efficacy was expressed as the activity gain [A] parameter calculated according to the formula given in Figure 10.
(§5) Figure 10 Activity gain. MICAnt corresponds to the MIC of oxacillin in the absence of a compound tested and MICAnt + Comp refers to the MIC of oxacillin paired with a compound tested.

S. aureus ATCC 25923 = assay: as above; type: cell-based, Staphylococcus aureus; conditions: MIC(OXA)/MIC(OXA+Cpd), compound 0.5 mM, adjuvant activity if A ≥ 4
Experimental: as §1, §2, §3, §4, §5

[2] = tested on: DND-41 (acute lymphoblastic leukemia); assay: Cytostatic activity (cell proliferation); type: cell-based; conditions: DND41
Experimental: (§6) The 50% cytostatic inhibitory concentration (IC50) causing a 50% decrease in cell proliferation was determined for all obtained compounds toward 9 cancerous cell lines, i.e.,: Capan-1 (pancreatic adenocarcinoma), Hap1 (chronic myeloid leukemia), HCT-116 (colorectal carcinoma), NCI-H460 (lung carcinoma), DND-41 (acute lymphoblastic leukemia), HL-60 (acute myeloid leukemia), K-562 (chronic myeloid leukemia), MM.1S (multiple myeloma), Z-138 non-Hodgkin lymphoma), as well as normal retina (non-cancerous) cells (hTERT RPE-1). Docetaxel, etoposide and stauroporine were used as the reference compounds.
(§7) All assays were performed in 96-well microtiter plates. To each well was added (5–7.5) × 10^4 tumor cells and a given amount of the tested compound. The cells were allowed to proliferate at 37 °C in a humidified, CO2-controlled atmosphere. At the end of the incubation period, the cells were counted in a Coulter counter. The IC50 (50% inhibitory concentration) was defined as the concentration of the compound that inhibited cell proliferation by 50%.

[3] = tested on: HCT-116 (colorectal carcinoma); assay: Cytostatic activity (cell proliferation); type: cell-based; conditions: Homo sapiens, HCT-116
Experimental: as §6, §7

[4] = tested on: Hap1 (chronic myeloid leukemia); assay: Cytostatic activity (cell proliferation); type: cell-based; conditions: Homo sapiens, HAP1
Experimental: as §6, §7

[5] = tested on: NCI-H460 (lung carcinoma); assay: Cytostatic activity (cell proliferation); type: cell-based; conditions: Homo sapiens, NCI-H460
Experimental: as §6, §7

[6] = tested on: hTERT RPE-1 normal retina (non-cancerous) cells; assay: Cytostatic activity (cell proliferation); type: cell-based; conditions: hTERT-RPE1
Experimental: as §6, §7

[7] = tested on: Capan-1 (pancreatic adenocarcinoma); assay: Cytostatic activity (cell proliferation); type: cell-based; conditions: Homo sapiens, CAPAN-1
Experimental: as §6, with “RPE-1).” for “RPE-1). Docetaxel, etoposide and stauroporine were used as the reference compounds.”
as §7, with “counter.” for “counter. The IC50 (50% inhibitory concentration) was defined as the concentration of the compound that inhibited cell proliferation by 50%.”

[8] = tested on: Madin Darby canine kidney cells (MDCK); conditions: microscopically detectable alteration of cell morphology
in vitro = conditions: dog
human coronavirus (229E) = assay: microbe, parasite or virus in culture; type: cell-based
[9] = tested on: cytomegalovirus AD-169 strain; assay: Antiviral CPE reduction assay, cytomegalovirus AD-169 strain in HEL cells; type: cell-based, human cytomegalovirus (HCMV); conditions: Human betaherpesvirus 5, AD169
[10] = tested on: human embryonic lung (HEL) cells; conditions: uninfected host cells of the coronavirus/cytomegalovirus assays
[11] = H1N1, MDCK cells, visual CPE score, read-out: EC50 by visual CPE score, influenza A virus H1N1
[12] = H1N1, MDCK, read-out: EC50 by TMS score, influenza A virus H1N1

CCOP(=O)(OCC)[C@@H]1[C@H](c2ccc(F)c(C)c2)C(=O)N1Cc1ccccc1 (relative stereo) [cis-11f, cis-N-benzyl-3-(4-fluoro-3-methylphenyl)-4-(diethoxyphosphoryl)azetidin-2-one]
pEC50 [1, 11]: 4.92 | pEC50 [1, 12]: 5.08 | Activity Gain [A] (MRSA HEMSA 5): 1–2 | Activity Gain [A] (S. aureus ATCC 25923): <0.5 | pIC50 [2]: < 4.00 | pIC50 [3]: < 4.00 | pIC50 [4]: < 4.00 | pIC50 [5]: 4.27 | pIC50 [6]: < 4.00 | pIC50 [7]: 4.42 | MCC (minimum cytotoxic concentration) [8]: > 100 µM | CC50 (in vitro): 39.9 µM

CCOP(=O)(OCC)[C@H]1[C@H](c2ccc(F)cc2)C(=O)N1C (relative stereo) [trans-10d, trans-N-methyl-3-(4-fluorophenyl)-4-(diethoxyphosphoryl)azetidin-2-one]
Activity Gain [A] (MRSA HEMSA 5): 1 | Activity Gain [A] (S. aureus ATCC 25923): 0.5 | pIC50 [2]: < 4.00 | pIC50 [3]: < 4.00 | pIC50 [4]: 4.24 | pIC50 [5]: 4.38 | pIC50 [6]: < 4.00 | pIC50 [7]: 4.34

CCOP(=O)(OCC)[C@H]1[C@H](c2ccc(F)cc2F)C(=O)N1C (relative stereo) [trans-10e, trans-N-methyl-3-(2,4-difluorophenyl)-4-(diethoxyphosphoryl)azetidin-2-one]
Activity Gain [A] (MRSA HEMSA 5): 1 | Activity Gain [A] (S. aureus ATCC 25923): <0.5 | pIC50 [2]: < 4.00 | pIC50 [3]: < 4.00 | pIC50 [4]: 4.29 | pIC50 [5]: 4.17 | pIC50 [6]: < 4.00 | pIC50 [7]: 4.29

CCOP(=O)(OCC)[C@H]1[C@H](c2ccc(F)c(C)c2)C(=O)N1C (relative stereo) [trans-10f, trans-N-methyl-3-(4-fluoro-3-methylphenyl)-4-(diethoxyphosphoryl)azetidin-2-one]
Activity Gain [A] (MRSA HEMSA 5): 1 | Activity Gain [A] (S. aureus ATCC 25923): 0.5 | pIC50 [2]: < 4.00 | pIC50 [3]: < 4.00 | pIC50 [4]: 4.38 | pIC50 [5]: 4.22 | pIC50 [6]: 4.04 | pIC50 [7]: 4.32

CCOP(=O)(OCC)[C@H]1[C@H](c2ccccc2)C(=O)N1Cc1ccccc1 (relative stereo) [trans-11a, trans-N-benzyl-3-phenyl-4-(diethoxyphosphoryl)azetidin-2-one]
Activity Gain [A] (MRSA HEMSA 5): 1–2 | Activity Gain [A] (S. aureus ATCC 25923): <0.5 | pIC50 [2]: < 4.00 | pIC50 [3]: < 4.00 | pIC50 [4]: 4.20 | pIC50 [5]: 4.29 | pIC50 [6]: < 4.00 | pIC50 [7]: 4.21

CCOP(=O)(OCC)[C@H]1[C@H](c2ccccc2F)C(=O)N1Cc1ccccc1 (relative stereo) [trans-11b, trans-N-benzyl-3-(2-fluorophenyl)-4-(diethoxyphosphoryl)azetidin-2-one]
Activity Gain [A] (MRSA HEMSA 5): 1–2 | Activity Gain [A] (S. aureus ATCC 25923): <0.5 | pIC50 [2]: < 4.00 | pIC50 [3]: < 4.00 | pIC50 [4]: < 4.00 | pIC50 [5]: 4.25 | pIC50 [6]: < 4.00 | pIC50 [7]: 4.28

CCOP(=O)(OCC)[C@H]1[C@H](c2cccc(F)c2)C(=O)N1Cc1ccccc1 (relative stereo) [trans-11c, trans-N-benzyl-3-(3-fluorophenyl)-4-(diethoxyphosphoryl)azetidin-2-one]
Activity Gain [A] (MRSA HEMSA 5): 1 | Activity Gain [A] (S. aureus ATCC 25923): <0.5 | pIC50 [2]: < 4.00 | pIC50 [3]: 4.34 | pIC50 [4]: 4.25 | pIC50 [5]: 4.35 | pIC50 [6]: 4.34 | pIC50 [7]: 4.40

CCOP(=O)(OCC)[C@H]1[C@H](c2ccc(F)cc2)C(=O)N1Cc1ccccc1 (relative stereo) [trans-11d, trans-N-benzyl-3-(4-fluorophenyl)-4-(diethoxyphosphoryl)azetidin-2-one]
Activity Gain [A] (MRSA HEMSA 5): 2 | Activity Gain [A] (S. aureus ATCC 25923): 0.5 | pIC50 [2]: < 4.00 | pIC50 [3]: 4.35 | pIC50 [4]: 4.32 | pIC50 [5]: 4.55 | pIC50 [6]: 4.14 | pIC50 [7]: 4.45

CCOP(=O)(OCC)[C@H]1[C@H](c2ccc(F)cc2F)C(=O)N1Cc1ccccc1 (relative stereo) [trans-11e, trans-N-benzyl-3-(2,4-difluorophenyl)-4-(diethoxyphosphoryl)azetidin-2-one]
Activity Gain [A] (MRSA HEMSA 5): 1 | Activity Gain [A] (S. aureus ATCC 25923): 0.5 | pIC50 [2]: < 4.00 | pIC50 [3]: 4.44 | pIC50 [4]: 4.37 | pIC50 [5]: 4.61 | pIC50 [6]: 4.59 | pIC50 [7]: 4.44

CCOP(=O)(OCC)[C@H]1[C@H](c2ccc(F)c(C)c2)C(=O)N1Cc1ccccc1 (relative stereo) [trans-11f, trans-N-benzyl-3-(4-fluoro-3-methylphenyl)-4-(diethoxyphosphoryl)azetidin-2-one]
Activity against human coronavirus (229E) relative to ribavirin (human coronavirus (229E)): ~2.5 fold | pEC50 (human coronavirus (229E); Human coronavirus 229E, HEL cells, reduction of virus-induced cytopathogenicity by 50%): 4.35 | pEC50 [9]: 4.26 | Activity Gain [A] (MRSA HEMSA 5): 16 | Activity Gain [A] (S. aureus ATCC 25923): 0.5 | pIC50 [2]: 4.18 | pIC50 [3]: 4.45 | pIC50 [4]: 4.33 | pIC50 [5]: 4.43 | pIC50 [6]: 4.47 | pIC50 [7]: 4.46 | Effect on normal cell morphology [10]: did not affect normal cell morphology

Nc1ccn(C[C@@H](CO)OCP(=O)(O)O)c(=O)n1 [cidofovir]
pEC50 [9]: 6.17

Nc1nc(O)c2ncn(COC(CO)CO)c2n1 [ganciclovir]
pEC50 [9]: 5.50

NC(=O)c1ncn([C@@H]2O[C@H](CO)[C@@H](O)[C@H]2O)n1 [ribavirin, reference compound]
pEC50 [1, 11]: 5.05 | pEC50 [1, 12]: 5.18 | CC50 (in vitro): ≥ 100 µM
